The values that follow come from patent US20250145606A1 (Arcus Biosciences, Inc., priority 2023, published 2025).

In one assay the target is FLT3 (Homo sapiens (Human), UniProt P36888). Briefly: Inhibition of FLT3 kinase activity (HTRF KinEASE-TK). The assay is classed as biochemical. The settings on record: biochemical, HTRF KinEASE-TK. In a few lines: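 FLT3 tyrosine kinase activity was measured with the HTRF KinEASE-TK kit by following phosphorylation of a biotinylated TK peptide. After the 45 min reaction, 10 μL of detection mix was added: 0.2 μM (2×) Streptavidin-XL665 and 2 μM (2×) TK-Antibody-Cryptate in detection buffer. After 60 min, TR-FRET was read on an Envision as the 665 nm/620 nm emission ratio with 320 nm excitation.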
Sequence of FLT3 (P36888 27-993): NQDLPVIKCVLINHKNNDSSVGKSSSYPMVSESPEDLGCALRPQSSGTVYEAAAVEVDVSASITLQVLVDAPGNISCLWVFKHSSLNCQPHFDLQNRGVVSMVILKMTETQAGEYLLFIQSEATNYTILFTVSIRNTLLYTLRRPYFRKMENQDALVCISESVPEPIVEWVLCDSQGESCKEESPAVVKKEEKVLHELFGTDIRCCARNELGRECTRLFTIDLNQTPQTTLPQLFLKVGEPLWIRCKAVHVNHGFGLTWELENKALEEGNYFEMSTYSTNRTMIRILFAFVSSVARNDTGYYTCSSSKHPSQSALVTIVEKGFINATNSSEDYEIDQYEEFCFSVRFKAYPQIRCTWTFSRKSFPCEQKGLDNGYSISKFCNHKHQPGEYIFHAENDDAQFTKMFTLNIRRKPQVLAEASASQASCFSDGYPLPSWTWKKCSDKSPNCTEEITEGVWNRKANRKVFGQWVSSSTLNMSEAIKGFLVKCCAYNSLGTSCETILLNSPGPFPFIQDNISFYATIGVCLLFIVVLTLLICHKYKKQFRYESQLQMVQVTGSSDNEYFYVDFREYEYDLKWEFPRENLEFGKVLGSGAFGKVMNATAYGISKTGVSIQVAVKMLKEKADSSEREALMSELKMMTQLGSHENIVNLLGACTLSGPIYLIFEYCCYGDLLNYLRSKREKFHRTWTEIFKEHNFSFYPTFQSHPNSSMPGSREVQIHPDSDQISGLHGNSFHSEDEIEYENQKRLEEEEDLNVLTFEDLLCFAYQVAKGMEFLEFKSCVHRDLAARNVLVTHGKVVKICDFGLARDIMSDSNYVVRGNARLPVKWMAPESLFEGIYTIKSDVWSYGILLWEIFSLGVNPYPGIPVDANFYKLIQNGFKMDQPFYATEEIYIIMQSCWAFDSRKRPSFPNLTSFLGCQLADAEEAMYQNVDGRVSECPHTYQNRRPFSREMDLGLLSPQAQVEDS
Background: TR-FRET usually uses a lanthanide donor and a delayed reading to cut background.

The subject of assay [1] is Phospho-KIT (Y703) in M07e cells. Briefly: Phospho-KIT (Y703) cellular assay in M07e cells. The assay is classed as cell-based. The following applies: M-07e; Phospho-KIT (Y703), M07e cells; read-out: M07e Cell IC50. In a few lines: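 Serum-starved M07e cells preincubated 50 min at 37° C with 11-point half-log compound titration, then stimulated 10 min with SCF at 90.9 ng/mL final. Fixed, permeabilized cells stained for phospho-KIT Y703 and read by flow cytometry (live-gated geometric mean); IC50 by 4-parameter fit normalized to DMSO and positive control.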

The target in the next assay is PDGFRα (Homo sapiens (Human), UniProt P16234). As to the kind of experiment: Inhibition of PDGFRα kinase activity (HTRF KinEASE-TK). The following applies: biochemical, HTRF KinEASE-TK. The method, boiled down: (§1)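 Recombinant kinases (2 nM CSF1R and c-Kit, 10 nM PDGFRα/β, 2× working) preincubated 1 h with compound in 50 mM HEPES pH 7.4, 5 mM MgCl2 (c-Kit) or 10 mM (others), 2 mM MnCl2; 2× ATP: c-Kit 16 μM, PDGFRα 1 μM, PDGFRβ 40 μM, CSF1R 20 μM. 120 min reaction at rt; TR-FRET 665/620 nm; IC50 by 4-parameter fit.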
Sequence of PDGFRα (P16234 24-1089): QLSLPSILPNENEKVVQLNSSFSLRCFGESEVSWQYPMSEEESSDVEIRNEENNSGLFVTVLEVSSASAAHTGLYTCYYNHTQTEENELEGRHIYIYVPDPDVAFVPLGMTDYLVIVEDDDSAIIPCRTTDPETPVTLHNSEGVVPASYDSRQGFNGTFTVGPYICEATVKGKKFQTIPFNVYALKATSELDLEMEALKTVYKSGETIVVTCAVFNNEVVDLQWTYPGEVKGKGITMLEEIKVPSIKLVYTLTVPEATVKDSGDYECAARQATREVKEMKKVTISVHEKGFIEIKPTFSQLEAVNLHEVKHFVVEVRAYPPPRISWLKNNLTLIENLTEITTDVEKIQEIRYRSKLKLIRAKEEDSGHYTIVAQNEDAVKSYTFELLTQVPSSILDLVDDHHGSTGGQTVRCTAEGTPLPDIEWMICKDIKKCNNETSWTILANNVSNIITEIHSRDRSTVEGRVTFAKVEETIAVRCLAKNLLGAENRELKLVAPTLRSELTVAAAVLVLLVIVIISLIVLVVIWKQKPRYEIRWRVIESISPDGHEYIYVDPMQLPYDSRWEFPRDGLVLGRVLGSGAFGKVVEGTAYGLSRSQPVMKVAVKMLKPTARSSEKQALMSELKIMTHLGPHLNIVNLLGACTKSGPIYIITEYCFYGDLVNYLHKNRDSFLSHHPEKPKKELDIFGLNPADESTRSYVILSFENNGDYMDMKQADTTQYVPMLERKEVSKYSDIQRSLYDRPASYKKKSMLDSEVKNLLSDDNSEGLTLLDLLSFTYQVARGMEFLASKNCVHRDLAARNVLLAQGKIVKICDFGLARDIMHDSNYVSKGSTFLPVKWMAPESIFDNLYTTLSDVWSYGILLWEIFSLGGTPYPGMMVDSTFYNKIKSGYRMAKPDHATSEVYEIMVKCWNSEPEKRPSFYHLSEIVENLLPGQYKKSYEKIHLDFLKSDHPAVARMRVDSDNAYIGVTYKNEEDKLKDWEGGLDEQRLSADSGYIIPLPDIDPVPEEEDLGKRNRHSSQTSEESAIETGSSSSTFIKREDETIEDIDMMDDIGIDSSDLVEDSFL

In a further assay the target is CSF1R (Homo sapiens (Human), UniProt P07333). Briefly: Inhibition of CSF1R kinase activity (HTRF KinEASE-TK). The settings on record: biochemical, HTRF KinEASE-TK. The method, boiled down:
as §1

The target in another assay is c-Kit (Homo sapiens (Human), UniProt P10721). Briefly: Inhibition of c-Kit kinase activity (HTRF KinEASE-TK). The assay is classed as biochemical. The following applies: biochemical, HTRF KinEASE-TK. The method, boiled down:
as §1

The next assay addresses PDGFRβ (Homo sapiens (Human), UniProt P09619). As to the kind of experiment: Inhibition of PDGFRβ kinase activity (HTRF KinEASE-TK). The following applies: biochemical, HTRF KinEASE-TK. The method, boiled down: as §1

Sequence of CSF1R (P07333 20-972): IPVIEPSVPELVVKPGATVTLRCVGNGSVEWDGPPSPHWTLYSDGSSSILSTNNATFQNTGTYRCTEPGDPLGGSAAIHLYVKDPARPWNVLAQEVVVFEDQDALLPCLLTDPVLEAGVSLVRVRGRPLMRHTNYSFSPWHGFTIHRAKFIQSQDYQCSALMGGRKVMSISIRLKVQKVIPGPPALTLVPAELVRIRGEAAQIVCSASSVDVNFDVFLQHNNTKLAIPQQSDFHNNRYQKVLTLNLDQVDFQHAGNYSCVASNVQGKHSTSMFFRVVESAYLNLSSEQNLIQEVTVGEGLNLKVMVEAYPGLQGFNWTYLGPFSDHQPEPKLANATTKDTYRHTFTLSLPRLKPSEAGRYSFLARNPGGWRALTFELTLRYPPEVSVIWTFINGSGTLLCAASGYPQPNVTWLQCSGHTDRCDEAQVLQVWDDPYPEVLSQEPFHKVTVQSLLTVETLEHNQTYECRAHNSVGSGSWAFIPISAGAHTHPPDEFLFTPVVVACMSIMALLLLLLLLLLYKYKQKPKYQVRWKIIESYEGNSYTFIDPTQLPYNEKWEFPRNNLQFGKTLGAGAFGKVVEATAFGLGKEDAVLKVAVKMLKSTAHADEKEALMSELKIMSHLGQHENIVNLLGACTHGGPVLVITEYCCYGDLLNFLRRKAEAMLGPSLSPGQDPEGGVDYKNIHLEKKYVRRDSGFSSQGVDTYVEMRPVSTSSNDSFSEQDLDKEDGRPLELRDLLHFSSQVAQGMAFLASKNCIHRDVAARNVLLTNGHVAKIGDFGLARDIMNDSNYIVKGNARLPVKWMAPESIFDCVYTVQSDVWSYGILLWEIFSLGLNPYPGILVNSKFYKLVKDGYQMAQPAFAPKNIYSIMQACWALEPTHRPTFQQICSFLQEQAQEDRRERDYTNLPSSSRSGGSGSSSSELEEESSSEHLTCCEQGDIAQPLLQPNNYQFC
Sequence of PDGFRβ (P09619 33-1106): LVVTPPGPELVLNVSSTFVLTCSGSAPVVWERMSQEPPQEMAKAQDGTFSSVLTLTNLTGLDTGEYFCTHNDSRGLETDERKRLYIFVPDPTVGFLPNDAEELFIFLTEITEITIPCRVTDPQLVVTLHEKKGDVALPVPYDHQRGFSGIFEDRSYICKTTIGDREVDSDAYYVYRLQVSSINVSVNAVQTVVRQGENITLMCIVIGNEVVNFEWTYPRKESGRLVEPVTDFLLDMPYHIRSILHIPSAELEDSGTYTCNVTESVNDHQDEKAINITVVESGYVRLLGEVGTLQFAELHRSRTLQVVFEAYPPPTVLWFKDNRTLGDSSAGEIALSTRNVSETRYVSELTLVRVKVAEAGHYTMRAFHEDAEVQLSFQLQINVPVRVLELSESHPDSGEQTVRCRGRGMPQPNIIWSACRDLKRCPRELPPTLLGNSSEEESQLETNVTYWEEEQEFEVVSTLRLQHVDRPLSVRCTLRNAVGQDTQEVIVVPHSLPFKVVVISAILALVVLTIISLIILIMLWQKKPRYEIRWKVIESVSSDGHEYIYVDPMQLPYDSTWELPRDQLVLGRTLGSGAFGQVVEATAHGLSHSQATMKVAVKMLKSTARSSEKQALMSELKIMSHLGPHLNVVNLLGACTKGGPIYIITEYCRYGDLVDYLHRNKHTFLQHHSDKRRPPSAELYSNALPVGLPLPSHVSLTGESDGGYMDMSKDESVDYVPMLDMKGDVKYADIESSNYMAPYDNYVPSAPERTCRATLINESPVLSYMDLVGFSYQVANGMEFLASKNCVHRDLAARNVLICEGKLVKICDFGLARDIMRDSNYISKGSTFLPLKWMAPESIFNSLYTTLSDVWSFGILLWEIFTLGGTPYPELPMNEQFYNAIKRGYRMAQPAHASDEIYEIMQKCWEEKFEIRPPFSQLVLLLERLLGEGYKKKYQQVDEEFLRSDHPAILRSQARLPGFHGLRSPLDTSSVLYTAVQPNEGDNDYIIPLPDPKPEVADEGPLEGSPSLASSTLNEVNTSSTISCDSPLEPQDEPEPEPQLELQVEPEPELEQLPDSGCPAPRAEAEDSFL
Sequence of c-Kit (P10721 26-976): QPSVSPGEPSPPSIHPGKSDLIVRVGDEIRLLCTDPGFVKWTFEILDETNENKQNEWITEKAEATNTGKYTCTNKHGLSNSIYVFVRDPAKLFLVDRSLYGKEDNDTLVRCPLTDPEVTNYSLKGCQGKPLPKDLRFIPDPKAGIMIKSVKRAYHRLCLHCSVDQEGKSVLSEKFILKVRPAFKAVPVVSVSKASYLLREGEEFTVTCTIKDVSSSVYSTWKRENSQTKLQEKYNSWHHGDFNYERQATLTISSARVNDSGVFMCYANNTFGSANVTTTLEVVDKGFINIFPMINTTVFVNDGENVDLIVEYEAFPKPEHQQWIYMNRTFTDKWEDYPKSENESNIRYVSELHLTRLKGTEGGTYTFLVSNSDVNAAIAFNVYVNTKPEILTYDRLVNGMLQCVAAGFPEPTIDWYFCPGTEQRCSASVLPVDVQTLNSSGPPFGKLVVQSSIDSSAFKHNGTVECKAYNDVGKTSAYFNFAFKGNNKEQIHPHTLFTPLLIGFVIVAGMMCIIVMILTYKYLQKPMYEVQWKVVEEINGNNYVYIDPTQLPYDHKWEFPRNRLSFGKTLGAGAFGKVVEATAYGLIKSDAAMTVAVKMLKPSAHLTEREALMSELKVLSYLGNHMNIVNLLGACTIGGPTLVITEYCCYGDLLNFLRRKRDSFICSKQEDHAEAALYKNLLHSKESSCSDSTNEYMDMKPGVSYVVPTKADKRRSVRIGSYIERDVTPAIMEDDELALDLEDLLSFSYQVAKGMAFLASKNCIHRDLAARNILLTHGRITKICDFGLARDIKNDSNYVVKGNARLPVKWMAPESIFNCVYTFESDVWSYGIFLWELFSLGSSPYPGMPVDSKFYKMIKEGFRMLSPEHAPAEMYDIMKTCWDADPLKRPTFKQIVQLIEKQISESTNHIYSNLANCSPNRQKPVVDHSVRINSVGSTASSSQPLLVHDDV

For `CCn1ccc(NC(=O)c2cc(NC(=O)c3cnc(N)s3)c(C)cc2F)n1` [Example 179, 2-Amino-N-[5-[(1-ethylpyrazol-3-yl)carbamoyl]-4-fluoro-2-methylphenyl]-1,3-thiazole-5-carboxamide], the 50% inhibitory concentration (IC50) (usually the concentration at which inhibition is half-maximal) was above 1 µM against FLT3; below 0.1 µM in assay [1]; above 1 µM against PDGFRα; above 1 µM at CSF1R; below 0.1 µM against c-Kit; above 1 µM at PDGFRβ.
As to `Cc1cc(F)c(C(=O)Nc2ccn(C(F)F)n2)cc1NC(=O)c1cnc(N)s1` [Example 181, 2-Amino-N-[5-[[1-(difluoromethyl)pyrazol-3-yl]carbamoyl]-4-fluoro-2-methylphenyl]-1,3-thiazole-5-carboxamide], the IC50 was above 1 µM on FLT3; below 0.1 µM in assay [1]; above 1 µM at PDGFRα; above 1 µM against CSF1R; below 0.1 µM at c-Kit; above 1 µM on PDGFRβ.
Consider `CO[C@H]1C[C@@H](n2ccc(NC(=O)c3cc(NC(=O)c4cnc(N)s4)c(C)cc3F)n2)C1` [Example 185, 2-Amino-N-[4-fluoro-5-[[1-(cis-3-methoxycyclobutyl)pyrazol-3-yl]carbamoyl]-2-methylphenyl]-1,3-thiazole-5-carboxamide], for which the IC50 is above 1 µM against FLT3; below 0.1 µM in assay [1]; above 1 µM against PDGFRα; above 1 µM against CSF1R; below 0.1 µM at c-Kit; above 1 µM against PDGFRβ.
On to `CO[C@H]1C[C@H](n2ccc(NC(=O)c3cc(NC(=O)c4cnc(N)s4)c(C)cc3F)n2)C1` [Example 187, 2-Amino-N-[4-fluoro-5-[[1-(trans-3-methoxycyclobutyl)pyrazol-3-yl]carbamoyl]-2-methylphenyl]-1,3-thiazole-5-carboxamide], for which the IC50 on FLT3 was above 1 µM; in assay [1], below 0.1 µM; at PDGFRα it was above 1 µM; at CSF1R it was above 1 µM; against c-Kit it was below 0.1 µM; against PDGFRβ, above 1 µM.
Turning to `COc1ccnc(NC(=O)c2cc(NC(=O)c3cnc(N)s3)c(C)cc2F)c1` [Example 189, 2-Amino-N-[4-fluoro-5-[(4-methoxypyridin-2-yl)carbamoyl]-2-methylphenyl]-1,3-thiazole-5-carboxamide], the 50% inhibitory concentration (IC50) against FLT3 is above 1 µM; in assay [1], below 0.1 µM; against PDGFRα it was above 1 µM; against CSF1R, 0.1 to 1 µM; against c-Kit it was below 0.1 µM; at PDGFRβ, 0.1 to 1 µM.
On to `Cc1cc(F)c(C(=O)Nc2ccn([C@H]3CCOC3)n2)cc1NC(=O)c1cnc(N)s1` [Example 191, 2-Amino-N-[4-fluoro-2-methyl-5-[[1-[(3S)-oxolan-3-yl]pyrazol-3-yl]carbamoyl]phenyl]-1,3-thiazole-5-carboxamide], for which the IC50 against FLT3 is above 1 µM; in assay [1], below 0.1 µM; on PDGFRα, above 1 µM; at CSF1R, above 1 µM; against c-Kit, below 0.1 µM; against PDGFRβ it was above 1 µM.
`Cc1cc(F)c(C(=O)NCC2(F)CCC2)cc1NC(=O)c1cnc(N)s1` [Example 192, 2-amino-N-[4-fluoro-5-[(1-fluorocyclobutyl)methylcarbamoyl]-2-methylphenyl]-1,3-thiazole-5-carboxamide]: the IC50 at FLT3 was above 1 µM; in assay [1] it was below 0.1 µM; on PDGFRα it was above 1 µM; on CSF1R, above 1 µM; against c-Kit it was below 0.1 µM; on PDGFRβ, 0.1 to 1 µM.
Turning to `Cc1cc(F)c(C(=O)N[C@H]2CCOC2)cc1NC(=O)c1cnc(N)s1` [Example 194, 2-Amino-N-[4-fluoro-2-methyl-5-[[(3S)-oxolan-3-yl]carbamoyl]phenyl]-1,3-thiazole-5-carboxamide], the half-maximal inhibitory concentration (IC50) at FLT3 was above 1 µM; in assay [1], 0.1 to 1 µM; on PDGFRα it was above 1 µM; against CSF1R it was above 1 µM; against c-Kit, below 0.1 µM; against PDGFRβ it was above 1 µM.
For `Cc1cc(F)c(C(=O)Nc2ccc(COC(C)C)cn2)cc1NC(=O)c1cnc(N)s1` [Example 195, 2-Amino-N-[4-fluoro-2-methyl-5-[[5-(propan-2-yloxymethyl)pyridin-2-yl]carbamoyl]phenyl]-1,3-thiazole-5-carboxamide], the 50% inhibitory concentration (IC50) against FLT3 is 0.1 to 1 µM; in assay [1], below 0.1 µM; against PDGFRα, above 1 µM; on CSF1R it was above 1 µM; against c-Kit it was below 0.1 µM; at PDGFRβ, above 1 µM.
For the compound `CCOCc1ccc(NC(=O)c2cc(NC(=O)c3cnc(N)s3)c(C)cc2F)nc1` [Example 196, 2-Amino-N-[5-[[5-(ethoxymethyl)pyridin-2-yl]carbamoyl]-4-fluoro-2-methylphenyl]-1,3-thiazole-5-carboxamide], the IC50 against FLT3 is above 1 µM; in assay [1], below 0.1 µM; at PDGFRα it was above 1 µM; on CSF1R it was above 1 µM; against c-Kit it was below 0.1 µM; against PDGFRβ, above 1 µM.
`COCc1ccc(NC(=O)c2cc(NC(=O)c3cnc(N)s3)c(Cl)cc2F)nc1` [Example 202, 2-Amino-N-[2-chloro-4-fluoro-5-[[5-(methoxymethyl)pyridin-2-yl]carbamoyl]phenyl]-1,3-thiazole-5-carboxamide]: the IC50 against FLT3 was above 1 µM; in assay [1], below 0.1 µM; on PDGFRα it was above 1 µM; on CSF1R, above 1 µM; on c-Kit, below 0.1 µM; at PDGFRβ it was above 1 µM.
Consider `Nc1ncc(C(=O)Nc2cc(C(=O)Nc3ncc(C4CC4)cn3)c(F)cc2Cl)s1` [Example 203, 2-Amino-N-[2-chloro-5-[(5-cyclopropylpyrimidin-2-yl)carbamoyl]-4-fluorophenyl]-1,3-thiazole-5-carboxamide], for which the IC50 on FLT3 was above 1 µM; in assay [1] it was below 0.1 µM; against PDGFRα, above 1 µM; on CSF1R it was 0.1 to 1 µM; at c-Kit, below 0.1 µM; at PDGFRβ it was 0.1 to 1 µM.
`Nc1ncc(C(=O)Nc2cc(C(=O)Nc3cnc(C4CC4)nc3)c(F)cc2Cl)s1` [Example 204, 2-Amino-N-[2-chloro-5-[(2-cyclopropylpyrimidin-5-yl)carbamoyl]-4-fluorophenyl]-1,3-thiazole-5-carboxamide]: the IC50 was above 1 µM at FLT3; below 0.1 µM in assay [1]; 0.1 to 1 µM on PDGFRα; 0.1 to 1 µM against CSF1R; below 0.1 µM at c-Kit; 0.1 to 1 µM at PDGFRβ.
Take `Nc1ncc(C(=O)Nc2cc(C(=O)Nc3cnc(C4CC4)cn3)c(F)cc2Cl)s1` [Example 205, 2-Amino-N-[2-chloro-5-[(5-cyclopropylpyrazin-2-yl)carbamoyl]-4-fluorophenyl]-1,3-thiazole-5-carboxamide]: the IC50 is above 1 µM on FLT3; below 0.1 µM in assay [1]; 0.1 to 1 µM against PDGFRα; below 0.1 µM against CSF1R; below 0.1 µM against c-Kit; below 0.1 µM against PDGFRβ.
As to `Nc1ncc(C(=O)Nc2cc(C(=O)Nc3ccc(C(F)F)cn3)c(F)cc2Cl)s1` [Example 206, 2-Amino-N-[2-chloro-5-[[5-(difluoromethyl)pyridin-2-yl]carbamoyl]-4-fluorophenyl]-1,3-thiazole-5-carboxamide], the IC50 against FLT3 was above 1 µM; in assay [1] it was below 0.1 µM; on PDGFRα, above 1 µM; against CSF1R it was 0.1 to 1 µM; against c-Kit, below 0.1 µM; against PDGFRβ, 0.1 to 1 µM.
